Patent publication US5329012A, “Bis(acyloxmethyl)imidazole compounds” (The Research Foundation of State University of New York, priority 1987, dated 1994)

What was measured:
[1] = test system: lymphocytic leukemia P-388; assay: P-388 lymphocytic leukemia test in mice (NCI Protocol 1.200); assay type: in vivo, CDF1 female mice; details: daily for 5 days
Experimental: Various bis(acyloxymethyl)imidazole derivatives prepared in accord with Examples I-XVIII and designated Samples A-J, were tested for anti-tumor activity in vivo using the lymphocytic leukemia P-388 test procedure in mice with Samples A and B representing controls. The test system was that employed by the National Cancer Institute (NCI) for the preliminary screening of anti-tumor agents, according to Protocol 1.200 (Cancer Chemo. Reports Part 3, Vol. 3, No. 2, page 9; 1972). In the study ascitic fluid containing 6×10^6 cells was implanted in the peritoneal cavity of CDF1 female mice. Each imidazole was given in a single injection, at four to six different dose levels (5-6 mice/dose level) daily for five (5) days beginning 24 hours after tumor innoculation. The control animals received saline. Test criteria was in accord with NCI protocol as follows: toxicity day evaluations were carried out on day 5 (number of survivors/number of animals tested); % T/C data was calculated through mean survival time [% T/C=(MST treated/MST control)x100, where MST=mean survival time]; BWD refers to the body weight difference (grams) of test animals compared to control animals; KE refers to the log of the tumor cell population at the end of treatment relative to tumor cell population before treatment.
Table I sets out the identification of the compounds corresponding to the samples used in this and further Examples. Table II sets out the results of the P-388 tests.

[2] = hygroscopicity of the hydrochloride salt (observation); assay type: physicochemical; details: crystalline hydrochloride salt
Experimental: A solution of the 1-n-propyl-2-methylthio-4,5-bis(N-methyl carbonyloxymethyl)imidazole prepared in Example XVI (1.72 g; 5.21 mmol) in anhydrous dichloromethane (50 mL) was stirred at 0°-5° C. while anhydrous hydrogen chloride gas was bubbled into the solution for 5 minutes through a gas dispersion tube. […] The residue was dried in vacuo for 10 minutes and dissolved in anhydrous dichloromethane (40 mL). The solution was reduced in volume to 10 mL to induce crystallization. Once crystallization had begun, methylene chloride (20 mL) was added and the cold (0° C.) solution was triturated for 10 minutes.

[3] = test system: LOX (amelanotic melanoma) human tumor xenograft; assay: LOX human amelanotic melanoma xenograft, survival evaluation; assay type: in vivo, human tumor in female athymic (nude) mice; details: single dose, hydrochloride salt
Experimental: (§1) Tumor cells were inoculated ip(intraperitonal) into female, athymic, mice, being either MX-1 (mammary) or LOX (amelanotic melanoma) human tumor xenograph models. The human xenograft tumors were formed by heterotransplantation of surgically removed human tumors into the subrenal capsule of the nude mice. […] The hydrochloride salts of the compounds, designated H, K, and L, and the free base of H, as identified on Table I were administered to the viable human xenograft tumors by a single dose subcutaneous renal cavity (MX-1) injection or interperitonal (LOX) injection to the nude mice test animal in a suspension of 0.9% aqueous sodium chloride solution with "tween-80" and distilled water. The tested compounds were tested against a known cancer tumor inhibiting compound (control) 2,3-dihydro-5-(3'-4'-dichloropheny1)-6,7-bis(n-propylcarbanoxymethylcarbonate)-1H-pyrollizine.
(§2) In both the MX-1 and LOX model, results were expressed as a percentage of the test animal evaluation (T) compared to that for the control (C) and was reported as %T/C. These values are based on all mice in the test.
In the LOX model %T/C was evaluated by survival, meaning that the mean survival time of mice of the control group surviving (C) is compared to the mean survival time of mice who survived the test with treatment (T).
(§3) The data presented comprises findings at optimal dosages of particularly effective compounds of the invention as compared to the control.

[4] = test system: MX-1 (mammary) human tumor xenograft; assay: MX-1 human mammary tumor xenograft (subrenal capsule), tumor weight evaluation; assay type: in vivo, human tumor in female athymic (nude) mice; details: single dose, hydrochloride salt
Experimental: as §1, §2
In the MX-1 model %T/C was evaluated from an estimate of tumor weight in untreated mice as compared to an estimate of tumor weight in treated mice. In such tumor weight evaluation, a low %T/C indicates effective treatment as the tumors of the treated mice are smaller than tumors of the untreated control mice.
as §3

[5] = Mus musculus, P388, 120 h, 25 mg/kg/inj, read-out: % T/C (mean survival time)
[6] = Mus musculus, P388, 120 h, 50 mg/kg/inj, read-out: % T/C (mean survival time)
[7] = Mus musculus, P388, 120 h, 100 mg/kg/inj, read-out: % T/C (mean survival time)
[8] = Mus musculus, P388, 120 h, 200 mg/kg/inj, read-out: % T/C (mean survival time)
[9] = Mus musculus, P388, 120 h, 400 mg/kg/inj, read-out: % T/C (mean survival time)

Row | SMILES | BWD (body weight difference vs control) ([1]; 25 mg/kg/inj) | KE (log tumor cell population end vs before treatment) ([1]; 25 mg/kg/inj) | BWD (body weight difference vs control) ([1]; 50 mg/kg/inj) | KE (log tumor cell population end vs before treatment) ([1]; 50 mg/kg/inj) | BWD (body weight difference vs control) ([1]; 100 mg/kg/inj) | KE (log tumor cell population end vs before treatment) ([1]; 100 mg/kg/inj) | BWD (body weight difference vs control) ([1]; 200 mg/kg/inj) | KE (log tumor cell population end vs before treatment) ([1]; 200 mg/kg/inj) | BWD (body weight difference vs control) ([1]; 400 mg/kg/inj) | KE (log tumor cell population end vs before treatment) ([1]; 400 mg/kg/inj) | response vs control in vivo at 25 mg/kg [1, 5] | response vs control in vivo at 50 mg/kg [1, 6] | response vs control in vivo at 100 mg/kg [1, 7] | response vs control in vivo at 200 mg/kg [1, 8] | response vs control in vivo at 400 mg/kg [1, 9] | also measured
1 | CSc1nc(COC(=O)NC(C)C)c(COC(=O)NC(C)C)n1C [I, 1-methyl-2-methylthio-4,5-bis-[N-(2-propyl)carbonyloxymethyl)imidazole] | 0.4 g | -0.91 | 0.0 g | -0.56 | -1.2 g | 1.89 | -1.8 g | 4.21 | -3.4 g | toxic | 125% | 130% | 163% | 184% | 70% | BWD (body weight difference vs control) ([1]; 12.5 mg/kg/inj): 2.6 g; KE (log tumor cell population end vs before treatment) ([1]; 12.5 mg/kg/inj): -1.40; response vs control in vivo at 12.5 mg/kg ([1]; Mus musculus, P388, 120 h, 12.5 mg/kg/inj, read-out: % T/C (mean survival time)): 113%
2 | COc1nc(COC(=O)NC(C)C)c(COC(=O)NC(C)C)n1C [J, 1-methyl-2-methoxy-4,5-bis-[N-(2-propyl)carbonyloxymethyl)imidazole] | -0.1 g | -0.60 | -1.0 g | 0.54 | -2.1 g | 1.87 | -2.6 g | 3.41 | -4.2 g | 3.88 | 130% | 147% | 166% | 189% | 196% | –
3 | CCCn1c(SC)nc(COC(=O)NC)c1COC(=O)NC [K, 1-n-propyl-2-methylthio-4,5-bis-(N-methylcarbonyloxymethyl)imidazole] | – | – | – | – | – | – | – | – | – | – | – | – | – | – | – | hygroscopicity [2]: slightly hygroscopic; LOX % T/C Survl. ([3]; optimal dosage 240 mg/kg): 191%; LOX Cures ([3]; optimal dosage 240 mg/kg): 1/6; MX-1 Cures ([4]; optimal dosage 240 mg/kg): 6/6
4 | CCCCCCn1c(SC)nc(COC(=O)NC)c1COC(=O)NC [L, 1-n-hexyl-2-methylthio-4,5-bis-(N-methylcarbonyloxymethyl)imidazole] | – | – | – | – | – | – | – | – | – | – | – | – | – | – | – | LOX % T/C Survl. ([3]; optimal dosage 135 mg/kg): 208%; LOX Cures ([3]; optimal dosage 135 mg/kg): 1/6; MX-1 Cures ([4]; optimal dosage 270 mg/kg): 6/6
